Results on twelve molecules are retold here after patent US20110263454A1, “Methods of Identifying Functional Characteristics of Promoters, Transcription Modifying Proteins and Transcription Modulating Agents” (Salk Institute for Biological Studies, priority 2008, published 2011).

Assay [1] relates to hMyoD promoter. In words: NHR-promoter luciferase screen, hMyoD promoter. It counts as cell-based, human. Conditions: for Luc. act., normalized to lacZ / Normalized Luc. act., normalized to control: MyoD promoter reporter, co-transfected HR, without or with its ligand; for Normalized Luc. act., normalized to control: relative to control; for luciferase activity normalized to lacZ activity and to a control, hMyoD: hMyoD promoter-luciferase, CV-1 cells, NHR +/- ligand, control = 1.00. The procedure: (§1) The use, feasibility, and reproducibility of the functional NHR-promoter screen in a 48-well format have been tested validated. Briefly, there were co-expressed 50 ng of each NHR/NHR homodimer or NHR/RXR heterodimer with 100 ng promoter/luciferase construct and 50 ng of LacZ (as a control for transfection efficiency) in CV-1 cells using Fugene HD (Roche) as a transfection reagent (alternatively or additionally, a CMV-YFP construct can be used as a transfection control). Each of the nuclear hormone receptors that were used in these experiments was cloned into a pcDNA3.1 vector and comprised a C-terminally linked V5H6 tag. Twenty-four hours after transfection, appropriate ligands were added, where applicable, (see Table 5 for various ligands and concentrations and after 48 hrs, samples were assayed for luciferase and LacZ activity. To measure for luciferase activity 15 ul of sample was added to 30 ul of luciferase buffer (20 mM tricine, 1.07 mM MgCarbonate, 2.67 mM MgSulfate, 0.1 mM Naz-EDTA, 5 mM DTT, 5 mM ATP, 0.15 mg/ml CoA, 0.5 mM Luciferin), mixed briefly, and run in a Perkin Elmer Victor 5 luminometer. Thus, the functional NHR-promoter screen was used to observe the transcriptional activity of 29 promoters from various physiological pathways including inflammation, lipid and sugar metabolism, cholesterol transport, xenobiotic metabolism, and circadian rhythm.
(§2) The promoters that facilitate transcription of the indicated gene products that were tested using the protocols described herein are listed in the first row of the table. The nuclear hormone receptors and, where applicable, ligands that were assayed for their transcriptional effects on the promoters are listed in the first column of the table. The data represent the luciferase activity of each sample normalized to both the lacZ activity of that sample and to a control, e.g., no NHR or ligand, as customary in the art. As described previously, these normalizations allow the transcriptional activity of each reporter cell to be compared to other samples.
(§3) Tables 7-40 show the transcriptional effects of the hormone receptors, and, where applicable, ligands (orphan receptors are screened without ligand), on each individual promoter. […] The control data of each table are shown in their last rows.

The test system of assay [2] is SREBP1c promoter. In words: NHR-promoter luciferase screen, SREBP1c promoter. The conditions noted are these: for Luc. act., normalized to lacZ / Normalized Luc. act., normalized to control: SREBP1c promoter, HR component without or with ligand; for mSREBP1-c promoter reporter activity: transcription factor +/- ligand, control = 1.00. Type of assay: cell-based, mouse. As for the experimental part:
as §1, §2, §3

For assay [3], the system named is hMDR1 promoter. In words: NHR-promoter luciferase screen, hMDR1 promoter. The conditions noted are these: for Luc. act., normalized to lacZ / Normalized Luc. act., normalized to control: MDR1 promoter, HR/ligand component; for hMDR1 promoter reporter activity: transcription factor +/- ligand, control = 1.00. It counts as cell-based, human. The procedure:
as §1, §2, §3

Consider “PNR: Photoreceptor-specific Nuclear Receptor (NR2E3), cDNA driver”, for which, in assay [1], the “Luc. act., normalized to lacZ” value was 37.1; the “Normalized Luc. act., normalized to control” value stood at 0.6; the “luciferase activity normalized to lacZ activity and to a control, hMyoD” value (shortened to “luciferase activity normalized”) was found to be 0.59. Moreover, in assay [2], the “Luc. act., normalized to lacZ” value is on record as 265.7; the “Normalized Luc. act., normalized to control” value came to 0.8; the “mSREBP1-c promoter reporter activity” value came out at 0.82. In assay [3], the “Luc. act., normalized to lacZ” value turned out to be 0.2; the “Normalized Luc. act., normalized to control” value came out at 0.5; the “hMDR1 promoter reporter activity” value worked out at 0.52.

As for “AR: Androsterone Receptor (NR3C4), cDNA driver”, in assay [1], the “Luc. act., normalized to lacZ” value is reported as 57.5; the “Normalized Luc. act., normalized to control” value was determined as 0.9; the “luciferase activity normalized” value was determined as 0.91. For the same molecule, in assay [2], the “Luc. act., normalized to lacZ” value was determined as 418.4; the “Normalized Luc. act., normalized to control” value turned out to be 1.3; the “mSREBP1-c promoter reporter activity” value amounted to 1.30. In addition, in assay [3], the “Luc. act., normalized to lacZ” value came to 0.2; the “Normalized Luc. act., normalized to control” value was found to be 0.6; the “hMDR1 promoter reporter activity” value is 0.60.

“PPARa: Peroxisome proliferator activated receptor α (NR1C1), cDNA driver”: in assay [1], the “Luc. act., normalized to lacZ” value is on record as 63.7; the “Normalized Luc. act., normalized to control” value is reported as 1.0; the “luciferase activity normalized” value amounted to 1.01. Moreover, in assay [2], the “Luc. act., normalized to lacZ” value was 935.6; the “Normalized Luc. act., normalized to control” value came out at 2.9; the “mSREBP1-c promoter reporter activity” value came out at 2.90. Also, in assay [3], the “Luc. act., normalized to lacZ” value was 0.2; the “Normalized Luc. act., normalized to control” value came to 0.5; the “hMDR1 promoter reporter activity” value amounted to 0.51.

For “ERR1: Estrogen Related Receptor α (NR3B1, ERRa), cDNA driver”, in assay [1], the “Luc. act., normalized to lacZ” value came out at 69.1; the “Normalized Luc. act., normalized to control” value amounted to 1.1; the “luciferase activity normalized” value was determined as 1.09. Besides, in assay [2], the “Luc. act., normalized to lacZ” value came to 316.8; the “Normalized Luc. act., normalized to control” value came to 1.0; the “mSREBP1-c promoter reporter activity” value is 0.98. In addition, in assay [3], the “Luc. act., normalized to lacZ” value is 0.4; the “Normalized Luc. act., normalized to control” value is 1.2; the “hMDR1 promoter reporter activity” value is on record as 1.20.

Take “TLX: Tailless (homolog of drosophila) (NR2E1), cDNA driver”: in assay [1], the “Luc. act., normalized to lacZ” value was found to be 31.3; the “Normalized Luc. act., normalized to control” value is on record as 0.5; the “luciferase activity normalized” value is 0.49. Further, in assay [2], the “Luc. act., normalized to lacZ” value turned out to be 352.4; the “Normalized Luc. act., normalized to control” value stood at 1.1; the “mSREBP1-c promoter reporter activity” value was 1.09. In assay [3], the “Luc. act., normalized to lacZ” value stood at 0.2; the “Normalized Luc. act., normalized to control” value was 0.7; the “hMDR1 promoter reporter activity” value was 0.70.

With “NR4a1: NR4a1 (NR4A1; NUR77), nuclear hormone receptor cDNA driver”, in assay [1], the “Luc. act., normalized to lacZ” value is on record as 152.5; the “Normalized Luc. act., normalized to control” value is 2.4; the “luciferase activity normalized” value came to 2.41. In assay [2], the “Luc. act., normalized to lacZ” value is recorded as 408.2; the “Normalized Luc. act., normalized to control” value was 1.3; the “mSREBP1-c promoter reporter activity” value was determined as 1.27. Moreover, in assay [3], the “Luc. act., normalized to lacZ” value is recorded as 0.4; the “Normalized Luc. act., normalized to control” value stood at 1.3; the “hMDR1 promoter reporter activity” value was determined as 1.29.

“GR: Glucocorticoid Receptor (NR3C1), cDNA driver”: in assay [1], the “Luc. act., normalized to lacZ” value worked out at 26.4; the “Normalized Luc. act., normalized to control” value stood at 0.4; the “luciferase activity normalized” value was determined as 0.42. Besides, in assay [2], the “Luc. act., normalized to lacZ” value was found to be 150.3; the “Normalized Luc. act., normalized to control” value came out at 0.5; the “mSREBP1-c promoter reporter activity” value is given as 0.47. For the same molecule, in assay [3], the “Luc. act., normalized to lacZ” value is on record as 0.1; the “Normalized Luc. act., normalized to control” value is given as 0.4; the “hMDR1 promoter reporter activity” value is recorded as 0.39.

For “RXRa: Retinoic X Receptor α (NR2B1), cDNA driver”, in assay [1], the “Luc. act., normalized to lacZ” value came out at 51.2; the “Normalized Luc. act., normalized to control” value is reported as 0.8; the “luciferase activity normalized” value was 0.81. In addition, in assay [2], the “Luc. act., normalized to lacZ” value amounted to 521.9; the “Normalized Luc. act., normalized to control” value came to 1.6; the “mSREBP1-c promoter reporter activity” value worked out at 1.62. Further, in assay [3], the “Luc. act., normalized to lacZ” value stood at 0.2; the “Normalized Luc. act., normalized to control” value was found to be 0.5; the “hMDR1 promoter reporter activity” value is 0.51.

As for “VDR: Vitamin D Receptor (NR1I1), cDNA driver”, in assay [1], the “Luc. act., normalized to lacZ” value is listed as 52.8; the “Normalized Luc. act., normalized to control” value came out at 0.8; the “luciferase activity normalized” value was determined as 0.83. In addition, in assay [2], the “Luc. act., normalized to lacZ” value is on record as 460.1; the “Normalized Luc. act., normalized to control” value was 1.4; the “mSREBP1-c promoter reporter activity” value was 1.43. Also, in assay [3], the “Luc. act., normalized to lacZ” value is 0.3; the “Normalized Luc. act., normalized to control” value came out at 0.9; the “hMDR1 promoter reporter activity” value is recorded as 0.90.

As for “SF-1: Steroidogenic Factor 1 (NR5A1, SF1), cDNA driver”, in assay [1], the “Luc. act., normalized to lacZ” value is recorded as 151.2; the “Normalized Luc. act., normalized to control” value is on record as 2.4; the “luciferase activity normalized” value came to 2.39. In assay [2], the “Luc. act., normalized to lacZ” value was determined as 916.0; the “Normalized Luc. act., normalized to control” value worked out at 2.8; the “mSREBP1-c promoter reporter activity” value turned out to be 2.84. Moreover, in assay [3], the “Luc. act., normalized to lacZ” value was determined as 0.7; the “Normalized Luc. act., normalized to control” value stood at 2.4; the “hMDR1 promoter reporter activity” value came out at 2.36.

B1: LXRb: Liver X Receptor β (NR1H2), cDNA driver (protein, UniProt P55055 1-460, looked up)
Oxysterols receptor LXR-beta: MSSPTTSSLDTPLPGNGPPQPGAPSSSPTVKEEGPEPWPGGPDPDVPGTDEASSACSTDWVIPDPEEEPERKRKKGPAPKMLGHELCRVCGDKASGFHYNVLSCEGCKGFFRRSVVRGGARRYACRGGGTCQMDAFMRRKCQQCRLRKCKEAGMREQCVLSEEQIRKKKIRKQQQESQSQSQSPVGPQGSSSSASGPGASPGGSEAGSQGSGEGEGVQLTAAQELMIQQLVAAQLQCNKRSFSDQPKVTPWPLGADPQSRDARQQRFAHFTELAIISVQEIVDFAKQVPGFLQLGREDQIALLKASTIEIMLLETARRYNHETECITFLKDFTYSKDDFHRAGLQVEFINPIFEFSRAMRRLGLDDAEYALLIAINIFSADRPNVQEPGRVEALQQPYVEALLSYTRIKRPQDQLRFPRMLMKLVSLRTLSSVHSEQVFALRLQDKKLPPLLSEIWDVHE
Regarding B1, in assay [1], the “Luc. act., normalized to lacZ” value stood at 54.6; the “Normalized Luc. act., normalized to control” value came to 0.9; the “luciferase activity normalized” value is given as 0.86. Moreover, the “regulation of the SREBP1c promoter” value in assay [2] (FIG. 2b, in words) is “specific and strong activation”. Also, in assay [2], the “Luc. act., normalized to lacZ” value turned out to be 4020.7; the “Normalized Luc. act., normalized to control” value is on record as 12.5; the “mSREBP1-c promoter reporter activity” value is recorded as 12.48. In assay [3], the “Luc. act., normalized to lacZ” value was 0.2; the “Normalized Luc. act., normalized to control” value is listed as 0.8; the “hMDR1 promoter reporter activity” value came to 0.78.

B2: HNF4a: Hepatocyte Nuclear Factor α (NR2A1), cDNA driver (protein, UniProt P41235 1-474, looked up)
Hepatocyte nuclear factor …: MRLSKTLVDMDMADYSAALDPAYTTLEFENVQVLTMGNDTSPSEGTNLNAPNSLGVSALCAICGDRATGKHYGASSCDGCKGFFRRSVRKNHMYSCRFSRQCVVDKDKRNQCRYCRLKKCFRAGMKKEAVQNERDRISTRRSSYEDSSLPSINALLQAEVLSRQITSPVSGINGDIRAKKIASIADVCESMKEQLLVLVEWAKYIPAFCELPLDDQVALLRAHAGEHLLLGATKRSMVFKDVLLLGNDYIVPRHCPELAEMSRVSIRILDELVLPFQELQIDDNEYAYLKAIIFFDPDAKGLSDPGKIKRLRSQVQVSLEDYINDRQYDSRGRFGELLLLLPTLQSITWQMIEQIQFIKLFGMAKIDNLLQEMLLGGSPSDAPHAHHPLHPHLMQEHMGTNVIVANTMPTHLSNGQMCEWPRPRGQAATPETPQPSPPGGSGSEPYKLLPGAVATIVKPLSAIPQPTITKQEVI
As to B2, in assay [1], the “Luc. act., normalized to lacZ” value amounted to 65.5; the “Normalized Luc. act., normalized to control” value is recorded as 1.0; the “luciferase activity normalized” value turned out to be 1.03. Also, in assay [2], the “Luc. act., normalized to lacZ” value came to 263.6; the “Normalized Luc. act., normalized to control” value was found to be 0.8; the “mSREBP1-c promoter reporter activity” value is recorded as 0.82. Further, in assay [3], the “Luc. act., normalized to lacZ” value worked out at 0.2; the “Normalized Luc. act., normalized to control” value is reported as 0.8; the “hMDR1 promoter reporter activity” value is 0.77.
